SMILES strings stand for the structures.

In this experiment the target is T1, recombinant human CCR1 (Homo sapiens, UniProt P32246).
T1 construct: expressed in transfected cells; membranes prepared from them
T1 sequence (P32246 1-355): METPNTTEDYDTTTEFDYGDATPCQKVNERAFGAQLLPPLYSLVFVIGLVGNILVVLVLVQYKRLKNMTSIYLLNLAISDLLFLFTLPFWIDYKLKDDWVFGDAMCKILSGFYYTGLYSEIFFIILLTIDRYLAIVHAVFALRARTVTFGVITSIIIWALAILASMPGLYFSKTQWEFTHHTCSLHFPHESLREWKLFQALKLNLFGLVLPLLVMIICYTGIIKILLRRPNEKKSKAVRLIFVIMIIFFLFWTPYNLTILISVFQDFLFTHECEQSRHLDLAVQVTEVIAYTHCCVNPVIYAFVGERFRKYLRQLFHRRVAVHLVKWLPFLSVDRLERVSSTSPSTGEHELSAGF
The experiment is described as follows: Human CCR1 binding assay ([125I] MIP-1α displacement, HEK-CCR1 membranes). To be noted: HEK293 membranes expressing recombinant human CCR1; 33 pM [125I] MIP-1α.

Experimental: HEK293 cells, from ECACC, stably expressing recombinant human CCR1 (HEK-CCR1) were used to prepare cell membranes containing CCR1. The membranes were stored at −70° C. The concentration of membranes of each batch was adjusted to 10% specific binding of 33 pM [^125I] MIP-1α.
100 μL of HEK-CCR1 membranes diluted in assay buffer pH 7.4 (137 mM NaCl (Merck, Cat No 1.06404), 5.7 mM Glucose (Sigma, Cat No G5400), 2.7 mM KCl (Sigma, Cat No P-9333), 0.36 mM NaH2PO4×H2O (Merck, Cat No 1.06346), 10 mM HEPES (Sigma, Cat No H3375), 0.1% (w/v) Gelatine (Sigma, Cat No G2625)) with the addition of 17500 units/L Bacitracin (Sigma, Cat No B1025) were added to each well of the 96 well filter plate (0.45 μm opaque Millipore cat no MHVB N4550). […] 12 μl assay buffer with 10% DMSO was added to certain wells (without compound) to detect maximal binding (B0).
12 μL [^125I] MIP-1α, diluted in assay buffer to a final concentration in the wells of 33 pM, was added to all wells. The plates with lid were then incubated for 1.5 hrs at room temperature. After incubation the wells were emptied by vacuum filtration (MultiScreen Resist Vacuum Manifold system, Millipore) and washed once with 200 μl assay buffer. After the wash, all wells received an addition of 50 μL of scintillation fluid (OptiPhase “Supermix”, Wallac Oy, Turko, Finland). Bound [^125I] MIP-1: was measured using a Wallac Trilux 1450 MicroBeta counter. […]

As a reminder, the IC50 is the concentration that gives 50% inhibition. On to `CC(=O)Nc1ccc(O)cc1OC[C@@](C)(O)CNC1CCN(Cc2ccc(Cl)cc2)CC1` [N-{2-[((2S)-3-{[1-(4-chlorobenzyl)piperidin-4-yl]amino}-2-hydroxy-2-methylpropyl)oxy]-4-hydroxyphenyl}acetamide ditrifluoroacetate], for which the half-inhibitory concentration (IC50) was below 50 nM.
